The record followed here is patent publication US6552088B2, “Biphenyl derivatives” (Hoffmann-La Roche Inc., priority 1999, dated 2003).

The target in one data set is T1, human NK-1 receptor (Homo sapiens, UniProt P25103).
T1 construct: expressed in transfected cells; host or cells: CHO cells infected using the Semliki virus expression system; membrane suspension
Briefly: Affinity for the NK-1 receptor, [3H] substance P displacement binding assay. To be noted: human NK-1 receptors in CHO cells (Semliki virus expression system); [3H] substance P 0.6 nM; 60 min at room temperature; read-out: affinity to the NK-1 receptor, given as pKi (converted). The protocol: The affinity of test compounds for the NK-1 receptor was evaluated at human NK-1 receptors in CHO cells infected with the human NK-1 receptor (using the Semliki virus expression system) and radiolabelled with [3H] substance P (final concentration 0.6 nM). Binding assays were performed in HEPES buffer (50 mM, pH 7.4) containing BSA (0.04%) leupeptin (8 μg/ml), MnCl2 (3 mM) and phosphoramidon (2 μM). Binding assays consisted of 250 μl of membrane suspension (1.25×10^5 cells/assay tube), […] of buffer of displacing agent and 125 μl of [3H] substance P. Displacement curves were determined with at least seven concentrations of the compound. The assay tubes were incubated for 60 min at room temperature after which time the tube contents were rapidly filtered under vacuum through GF/C filters presoaked for 60 min with PEI (0.3%) with 2×2 ml washed of HEPES buffer (50 mM, pH 7.4). The radioactivity retained on the filters was measured by scintillation counting. All assays were performed in triplicate in at least 2 separate experiments.

By melting point is commonly meant the temperature, or range, at which the solid turns liquid.

Each structure is given as a SMILES string.

T1 sequence (P25103 whole entry): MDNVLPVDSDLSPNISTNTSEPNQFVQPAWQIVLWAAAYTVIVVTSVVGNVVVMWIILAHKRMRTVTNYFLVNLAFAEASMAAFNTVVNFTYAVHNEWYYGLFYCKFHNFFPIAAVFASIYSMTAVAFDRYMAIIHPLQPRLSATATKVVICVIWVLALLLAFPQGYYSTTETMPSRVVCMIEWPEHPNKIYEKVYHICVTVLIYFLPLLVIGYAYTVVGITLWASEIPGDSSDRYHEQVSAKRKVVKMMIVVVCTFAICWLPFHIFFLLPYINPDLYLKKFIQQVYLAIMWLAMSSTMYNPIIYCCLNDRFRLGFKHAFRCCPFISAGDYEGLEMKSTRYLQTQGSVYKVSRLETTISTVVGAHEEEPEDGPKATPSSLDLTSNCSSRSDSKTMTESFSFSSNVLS

`CN(Cc1cc(Cl)cc(Cl)c1)C(=O)c1ccccc1-c1ccccc1` [Example 2, Biphenyl-2-carboxylic acid (3,5-dichloro-benzyl)-methyl-amide]: the melting point lay in the range of 126 to 128 °C.

`Cc1cc(CN(C)C(=O)c2ccccc2-c2ccccc2)cc(C(F)(F)F)c1` [Example 3, Biphenyl-2-carboxylic acid methyl-(3-methyl-5-trifluoromethyl-benzyl)-amide] returned a melting point of 126.7 to 127.1 °C.

As for `Cc1ccccc1-c1ccc(N)cc1N(C)C(=O)C(C)(C)c1cc(C(F)(F)F)cc(C(F)(F)F)c1` [Example 18, N-(4-Amino-2′-methyl-biphenyl-2-yl)-2-(3,5-bis-trifluoromethyl-phenyl)-N-methyl-isobutyramide], on human NK-1 receptor, the Ki is 5.25 nM.

Consider `CNc1ccc(-c2ccccc2C)c(N(C)C(=O)C(C)(C)c2cc(C(F)(F)F)cc(C(F)(F)F)c2)c1` [Example 20, 2-(3,5-Bis-trifluoromethyl-phenyl)-N-methyl-N-(2′-methyl-4-methylamino-biphenyl-2-yl)-isobutyramide], for which the Ki on human NK-1 receptor is 9.77 nM.

Take `Cc1ccccc1-c1cc(N2CCN(C)CC2)ccc1C(=O)N(C)Cc1cc(C(F)(F)F)cc(C(F)(F)F)c1` [Example 27, 2′-Methyl-5-(4-methyl-piperazin-1-yl)-biphenyl-2-carboxylic acid (3,5-bis-trifluoromethyl-benzyl)-methyl-amide]: the Ki at human NK-1 receptor is 1.45 nM.
